Measured values taken from ChEMBL document CHEMBL1201862, “PubChem BioAssay data set” (2004).
“And” between values parts separate entries of the source, which are not always exact repeats. Identical values can stand only once. The source made the active and inactive calls. Non-standard residues stand in square brackets, D forms with d. Residues, ends and D or L forms follow the SMILES beside them. dChg = N[C@@H](C(=O)O)C1CCCCC1; NMeA = CN[C@@H](C)C(=O)O

Legend:
[1] = target: T1, Sphingosine 1-phosphate receptor 4 (Homo sapiens, UniProt O95977); assay: S1P4 receptor agonists, human, late-stage follow-up, cell-based, fluorescence, synthesized compounds (AID 463107); assay type: functional
T1 sequence (O95977 whole entry): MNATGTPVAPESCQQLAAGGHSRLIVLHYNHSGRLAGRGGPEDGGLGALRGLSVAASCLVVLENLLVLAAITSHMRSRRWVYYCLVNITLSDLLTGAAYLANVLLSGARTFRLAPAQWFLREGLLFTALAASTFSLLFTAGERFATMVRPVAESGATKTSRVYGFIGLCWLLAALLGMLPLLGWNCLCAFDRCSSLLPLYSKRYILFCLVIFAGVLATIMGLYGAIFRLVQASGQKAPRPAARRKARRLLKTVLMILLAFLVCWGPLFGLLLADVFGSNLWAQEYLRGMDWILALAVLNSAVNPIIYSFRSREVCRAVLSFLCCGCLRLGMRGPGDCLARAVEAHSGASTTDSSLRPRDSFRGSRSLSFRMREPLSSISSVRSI

[2] = target: T1, Sphingosine 1-phosphate receptor 4; assay: Late-stage fluorescence dose response cell-based assay to identify agonists of the Sphingosine 1-Phosphate Receptor 4 (S1P4): purchased compounds EC50. [Related pubchem assays (depositor defined):AID1509, AID1523, AID1563, AID1686, AID1701, AID1801]; assay type: functional
[3] = target: T2, Hexokinase HKDC1 (Homo sapiens, UniProt Q2TB90); assay: HKDC1 hexokinase activators, dose response, biochemical, W721R variant (AID 504730); assay type: functional
T2 sequence (Q2TB90 whole entry): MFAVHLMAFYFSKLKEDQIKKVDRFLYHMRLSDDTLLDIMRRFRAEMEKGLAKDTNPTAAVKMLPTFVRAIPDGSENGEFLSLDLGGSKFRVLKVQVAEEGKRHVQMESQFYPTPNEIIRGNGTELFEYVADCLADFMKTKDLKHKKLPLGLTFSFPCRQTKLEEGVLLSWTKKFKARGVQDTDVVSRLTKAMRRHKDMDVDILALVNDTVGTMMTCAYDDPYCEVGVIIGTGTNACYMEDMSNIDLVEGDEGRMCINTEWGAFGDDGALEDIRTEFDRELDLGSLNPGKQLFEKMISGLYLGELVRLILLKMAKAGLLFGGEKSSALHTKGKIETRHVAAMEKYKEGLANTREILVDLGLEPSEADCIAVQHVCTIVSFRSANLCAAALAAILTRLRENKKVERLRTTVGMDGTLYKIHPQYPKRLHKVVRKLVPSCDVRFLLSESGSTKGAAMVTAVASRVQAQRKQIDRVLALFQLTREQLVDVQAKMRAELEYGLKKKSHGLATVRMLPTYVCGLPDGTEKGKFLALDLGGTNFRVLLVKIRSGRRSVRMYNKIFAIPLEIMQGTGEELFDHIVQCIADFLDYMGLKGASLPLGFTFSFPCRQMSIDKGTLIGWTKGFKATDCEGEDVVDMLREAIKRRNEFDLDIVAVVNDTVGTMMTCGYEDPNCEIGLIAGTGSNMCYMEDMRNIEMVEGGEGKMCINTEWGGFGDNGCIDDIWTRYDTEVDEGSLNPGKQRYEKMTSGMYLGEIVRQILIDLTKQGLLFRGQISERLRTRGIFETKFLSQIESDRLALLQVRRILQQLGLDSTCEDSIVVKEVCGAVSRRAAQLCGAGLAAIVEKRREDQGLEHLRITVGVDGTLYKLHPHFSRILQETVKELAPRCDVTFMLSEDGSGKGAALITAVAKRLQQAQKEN

[4] = target: Nonstructural protein 1 (Influenza A virus, UniProt Q194T2); assay type: functional, Influenza A virus (A/California/07/2009(H1N1))
[5] = target: Hexokinase-1 (Homo sapiens, UniProt P19367); assay: hexokinase 1 activators, dose response, selectivity assay for HKDC1 activator project, biochemical (AID 504762); assay type: functional
[6] = target: T3, E3 ubiquitin-protein ligase XIAP (Homo sapiens, UniProt P98170); assay: SAR analysis of Antagonists of XIAP-Bir3 domain of IAP-family anti-apoptotic proteins. [Related pubchem assays (depositor defined):AID1018, AID1449, AID1513, AID1514, AID1638]
[7] = target: T3, E3 ubiquitin-protein ligase XIAP; assay: SAR analysis of Antagonists of IAP-family anti-apoptotic proteins. [Related pubchem assays (depositor defined):AID1018, AID1449, AID1513, AID1514, AID1638]
[8] = target: T4, Runt-related transcription factor 1/Core-binding factor subunit beta (Homo sapiens, UniProt Q01196+Q13951); assay: inhibitors of RUNX1 Runt–CBFb-SMMHC binding, primary screen, biochemical, FRET, Cerulean-Runt, Venus-CBFb-SMMHC, uHTS (AID 1434); assay type: protein assay;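 also: partner is the CBFb-SMMHC leukemia fusion protein rather than wild-type CBFb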
[9] = target: SUMO-activating enzyme (Homo sapiens, UniProt Q9UBT2); assay: SUMOylation inhibitor hit validation, confirmation, SUMOylation inhibitor project, biochemical, AlphaScreen (AID 2018); assay type: functional
[10] = target: T4, Runt-related transcription factor 1/Core-binding factor subunit beta; assay: inhibitors of RUNX1 Runt–CBFb-SMMHC binding, biochemical, TR-FRET (AID 1438); assay type: protein assay
[11] = target: Prothrombin (Homo sapiens, UniProt P00734); assay: Thrombin 1536 HTS Dose Response Confirmation. [Related pubchem assays: 1046 (Thrombin 1536 HTS; hits were confirmed in this assay)]; assay type: functional
[12] = target: T5, Coagulation factor XII (Homo sapiens, UniProt P00748); assay: Factor XIIa Dose Response Confirmation from Single Well HTS. [Related pubchem assays (depositor defined):AID701]; assay type: functional
T5 sequence (P00748 whole entry): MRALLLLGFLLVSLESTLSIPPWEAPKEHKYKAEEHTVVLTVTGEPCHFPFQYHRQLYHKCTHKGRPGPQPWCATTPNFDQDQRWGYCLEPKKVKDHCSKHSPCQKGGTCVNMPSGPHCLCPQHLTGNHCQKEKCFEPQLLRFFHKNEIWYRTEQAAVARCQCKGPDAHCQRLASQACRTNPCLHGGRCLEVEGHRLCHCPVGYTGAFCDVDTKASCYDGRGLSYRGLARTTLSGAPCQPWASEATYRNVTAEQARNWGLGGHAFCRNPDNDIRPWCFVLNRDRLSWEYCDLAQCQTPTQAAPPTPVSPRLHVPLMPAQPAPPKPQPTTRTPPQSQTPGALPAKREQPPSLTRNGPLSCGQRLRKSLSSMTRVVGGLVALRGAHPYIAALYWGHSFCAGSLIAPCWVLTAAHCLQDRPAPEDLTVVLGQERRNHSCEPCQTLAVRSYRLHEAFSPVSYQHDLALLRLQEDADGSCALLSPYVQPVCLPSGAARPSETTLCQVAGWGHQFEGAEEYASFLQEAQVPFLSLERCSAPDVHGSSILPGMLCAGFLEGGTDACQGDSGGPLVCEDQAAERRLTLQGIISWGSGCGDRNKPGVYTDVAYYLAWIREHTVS

[13] = target: T6, Protein skinhead-1 (Caenorhabditis elegans, UniProt P34707); assay type: functional
T6 sequence (P34707 whole entry): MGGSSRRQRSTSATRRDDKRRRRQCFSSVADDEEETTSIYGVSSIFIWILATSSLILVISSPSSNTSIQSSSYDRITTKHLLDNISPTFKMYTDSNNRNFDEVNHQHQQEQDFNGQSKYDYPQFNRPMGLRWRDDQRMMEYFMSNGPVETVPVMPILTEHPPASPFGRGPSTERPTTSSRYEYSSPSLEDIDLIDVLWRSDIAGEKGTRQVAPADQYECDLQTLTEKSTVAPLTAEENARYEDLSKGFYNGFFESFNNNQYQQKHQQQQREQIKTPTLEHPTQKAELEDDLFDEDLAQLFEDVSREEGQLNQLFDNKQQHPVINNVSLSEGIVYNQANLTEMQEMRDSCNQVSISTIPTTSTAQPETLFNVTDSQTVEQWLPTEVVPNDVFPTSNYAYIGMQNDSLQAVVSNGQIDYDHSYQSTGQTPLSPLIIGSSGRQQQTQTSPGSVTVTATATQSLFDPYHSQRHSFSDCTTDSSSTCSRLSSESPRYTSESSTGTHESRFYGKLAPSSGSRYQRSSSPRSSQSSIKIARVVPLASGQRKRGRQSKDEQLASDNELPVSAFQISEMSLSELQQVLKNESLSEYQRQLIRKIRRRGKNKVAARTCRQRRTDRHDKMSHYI

[14] = target: Aspartyl aminopeptidase (Plasmodium falciparum 3D7, UniProt Q8I2J3)
[15] = target: Procathepsin L (Homo sapiens, UniProt P07711)
[16] = target: T3, E3 ubiquitin-protein ligase XIAP; assay: Counter Screen using XIAP-Bir3 for Chemical Antagonists of Bir1/2 domains of IAP-family anti-apoptotic proteins. [Related pubchem assays (depositor defined):AID1018, AID1449, AID1514, AID1638, AID1749, AID1750, AID488957, AID488963]
[17] = target: T3, E3 ubiquitin-protein ligase XIAP; assay: XIAP antagonists, biochemical, IAP family, fluorescence polarization (AID 1018); assay type: functional
[18] = target: DNA damage-inducible transcript 3 protein (Mus musculus, UniProt P35639); assay type: functional, Cricetulus griseus
[19] = target: T7, X-box-binding protein 1 (Homo sapiens, UniProt P17861); assay type: functional, Cricetulus griseus;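 also: confirmatory dose-response counter-screen serving a CHOP assay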
T7 sequence (P17861 whole entry): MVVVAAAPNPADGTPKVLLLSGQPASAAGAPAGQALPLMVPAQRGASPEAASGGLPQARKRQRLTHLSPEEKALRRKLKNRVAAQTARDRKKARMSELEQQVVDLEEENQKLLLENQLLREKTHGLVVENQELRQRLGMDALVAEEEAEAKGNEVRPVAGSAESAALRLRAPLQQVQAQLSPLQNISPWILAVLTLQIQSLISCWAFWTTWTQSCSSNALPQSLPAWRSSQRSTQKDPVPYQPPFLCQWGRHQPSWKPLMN

[20] = HEK293T cell cytotoxicity, dose response, cytotoxicity control for HIV Vif inhibitor project, cherry-picks (AID 652208); assay type: functional, cell-based
[21] = target: Intestinal-type alkaline phosphatase (Homo sapiens, UniProt P09923); assay: human intestinal alkaline phosphatase activators, dose response, biochemical, luminescence, uHTS hits (AID 463120); assay type: functional
[22] = target: T8, Kappa-type opioid receptor (Homo sapiens, UniProt P41145); assay: SAR analysis of Antagonists of the Kappa Opioid Receptor (KOR) using an Image-Based Assay - Set 2. [Related pubchem assays (depositor defined):AID1777, AID1785, AID1786, AID1966, AID2133, AID2136, AID2284, AID2285, AID2348]; assay type: functional
[23] = target: T8, Kappa-type opioid receptor; assay: SAR analysis of small molecule agonists of the kappa opioid receptor via a luminescent beta-arrestin assay - Set 2. [Related pubchem assays (depositor defined):AID1777, AID1785, AID1786, AID1966, AID2133, AID2136, AID2284, AID449737]; assay type: functional
[24] = target: Delta-type opioid receptor (Homo sapiens, UniProt P41143); assay: SAR Analysis of Antagonists of the DOR Receptor using an Image-Based Assay - Set 2. [Related pubchem assays (depositor defined):AID1777, AID1785, AID1786, AID1966, AID2133, AID2136, AID2284, AID2285, AID2357]; assay type: functional
Sequence of Delta-type opioid receptor (P41143 whole entry): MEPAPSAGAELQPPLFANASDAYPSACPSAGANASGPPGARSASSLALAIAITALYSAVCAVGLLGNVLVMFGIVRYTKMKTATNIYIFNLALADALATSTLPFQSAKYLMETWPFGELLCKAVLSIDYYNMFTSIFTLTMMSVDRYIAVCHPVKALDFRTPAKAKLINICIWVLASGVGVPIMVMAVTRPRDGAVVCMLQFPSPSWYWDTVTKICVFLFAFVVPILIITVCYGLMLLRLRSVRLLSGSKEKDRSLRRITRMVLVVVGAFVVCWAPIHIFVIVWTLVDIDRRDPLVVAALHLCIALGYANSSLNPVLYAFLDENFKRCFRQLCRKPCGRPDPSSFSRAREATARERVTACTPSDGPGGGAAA

T3 sequence (P98170 whole entry, the tested form may be a part): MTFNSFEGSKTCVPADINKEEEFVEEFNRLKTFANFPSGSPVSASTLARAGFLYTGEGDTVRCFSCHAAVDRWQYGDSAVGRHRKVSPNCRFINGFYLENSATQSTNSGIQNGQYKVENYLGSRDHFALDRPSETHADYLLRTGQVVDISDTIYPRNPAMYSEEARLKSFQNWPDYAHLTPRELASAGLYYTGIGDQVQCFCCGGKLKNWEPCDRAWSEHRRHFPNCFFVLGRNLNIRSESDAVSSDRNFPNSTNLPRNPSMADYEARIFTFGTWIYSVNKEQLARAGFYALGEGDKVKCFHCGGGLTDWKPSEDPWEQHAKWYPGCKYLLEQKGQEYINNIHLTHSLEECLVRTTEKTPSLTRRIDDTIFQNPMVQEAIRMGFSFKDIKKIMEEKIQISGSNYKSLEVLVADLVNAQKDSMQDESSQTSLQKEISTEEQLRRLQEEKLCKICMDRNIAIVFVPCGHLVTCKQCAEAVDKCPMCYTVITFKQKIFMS
T8 sequence (P41145 whole entry): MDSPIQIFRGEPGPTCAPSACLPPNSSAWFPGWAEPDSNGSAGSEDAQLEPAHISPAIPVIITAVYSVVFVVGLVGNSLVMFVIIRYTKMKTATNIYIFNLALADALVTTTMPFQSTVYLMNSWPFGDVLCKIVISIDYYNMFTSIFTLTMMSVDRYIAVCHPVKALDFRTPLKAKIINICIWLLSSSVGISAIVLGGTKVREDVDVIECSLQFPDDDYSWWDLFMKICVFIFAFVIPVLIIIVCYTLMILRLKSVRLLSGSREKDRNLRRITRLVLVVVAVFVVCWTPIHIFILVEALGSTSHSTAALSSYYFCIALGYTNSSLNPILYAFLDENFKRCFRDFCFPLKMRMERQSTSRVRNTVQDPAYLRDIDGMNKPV
T4 sequence (Q01196 whole entry, the tested form may be a part): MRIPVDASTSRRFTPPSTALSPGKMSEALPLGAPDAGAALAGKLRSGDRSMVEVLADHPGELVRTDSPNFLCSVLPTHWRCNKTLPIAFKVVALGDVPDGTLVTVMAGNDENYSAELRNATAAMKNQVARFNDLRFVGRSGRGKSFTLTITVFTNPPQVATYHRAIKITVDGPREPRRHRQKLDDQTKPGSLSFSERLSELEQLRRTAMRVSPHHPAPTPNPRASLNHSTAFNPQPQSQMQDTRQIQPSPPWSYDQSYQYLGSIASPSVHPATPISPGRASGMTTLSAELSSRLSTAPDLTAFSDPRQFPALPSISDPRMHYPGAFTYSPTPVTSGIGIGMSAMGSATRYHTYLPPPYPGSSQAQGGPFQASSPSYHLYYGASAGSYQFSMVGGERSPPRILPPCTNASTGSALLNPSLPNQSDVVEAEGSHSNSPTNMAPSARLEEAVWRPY
T4 sequence (Q13951 whole entry, the tested form may be a part): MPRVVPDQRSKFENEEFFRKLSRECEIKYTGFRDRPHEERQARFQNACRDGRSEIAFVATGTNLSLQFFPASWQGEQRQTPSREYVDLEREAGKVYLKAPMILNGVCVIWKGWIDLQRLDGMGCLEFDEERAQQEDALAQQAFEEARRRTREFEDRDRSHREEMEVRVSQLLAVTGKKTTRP
Sequence of Hexokinase-1 (P19367 whole entry, the tested form may be a part): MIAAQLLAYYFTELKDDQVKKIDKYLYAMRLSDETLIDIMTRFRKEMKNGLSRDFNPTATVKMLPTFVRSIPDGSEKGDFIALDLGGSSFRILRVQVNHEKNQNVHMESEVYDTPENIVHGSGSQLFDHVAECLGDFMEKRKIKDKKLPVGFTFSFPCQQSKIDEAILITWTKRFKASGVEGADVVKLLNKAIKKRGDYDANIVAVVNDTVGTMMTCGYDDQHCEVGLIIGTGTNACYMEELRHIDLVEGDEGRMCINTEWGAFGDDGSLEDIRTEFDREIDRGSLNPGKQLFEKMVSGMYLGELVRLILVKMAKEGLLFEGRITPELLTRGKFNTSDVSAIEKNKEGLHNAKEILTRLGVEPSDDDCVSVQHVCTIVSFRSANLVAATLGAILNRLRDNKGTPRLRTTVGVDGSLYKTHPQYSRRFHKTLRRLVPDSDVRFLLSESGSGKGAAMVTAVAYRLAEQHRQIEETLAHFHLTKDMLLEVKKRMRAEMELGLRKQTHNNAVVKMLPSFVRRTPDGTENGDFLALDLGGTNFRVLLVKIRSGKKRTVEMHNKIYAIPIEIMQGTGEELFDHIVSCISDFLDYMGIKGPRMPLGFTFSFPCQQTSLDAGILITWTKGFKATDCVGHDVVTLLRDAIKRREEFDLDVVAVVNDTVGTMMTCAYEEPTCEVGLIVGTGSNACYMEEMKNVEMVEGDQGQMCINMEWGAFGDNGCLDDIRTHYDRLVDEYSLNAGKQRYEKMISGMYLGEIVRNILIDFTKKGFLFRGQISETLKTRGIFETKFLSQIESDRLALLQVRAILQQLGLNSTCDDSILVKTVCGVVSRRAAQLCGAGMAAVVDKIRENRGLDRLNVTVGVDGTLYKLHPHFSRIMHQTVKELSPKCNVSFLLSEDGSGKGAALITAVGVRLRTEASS
Sequence of SUMO-activating enzyme (Q9UBE0 whole entry): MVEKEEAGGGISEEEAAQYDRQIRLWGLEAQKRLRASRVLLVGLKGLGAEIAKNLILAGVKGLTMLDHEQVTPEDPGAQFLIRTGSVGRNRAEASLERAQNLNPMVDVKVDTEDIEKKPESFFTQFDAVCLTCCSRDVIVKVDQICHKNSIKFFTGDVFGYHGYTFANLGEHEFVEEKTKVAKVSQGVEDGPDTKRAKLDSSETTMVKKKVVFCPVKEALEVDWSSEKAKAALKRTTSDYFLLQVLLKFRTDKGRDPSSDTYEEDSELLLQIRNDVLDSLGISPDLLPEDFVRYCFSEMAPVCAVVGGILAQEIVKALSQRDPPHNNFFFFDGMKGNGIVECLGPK
Sequence of SUMO-activating enzyme (Q9UBT2 whole entry): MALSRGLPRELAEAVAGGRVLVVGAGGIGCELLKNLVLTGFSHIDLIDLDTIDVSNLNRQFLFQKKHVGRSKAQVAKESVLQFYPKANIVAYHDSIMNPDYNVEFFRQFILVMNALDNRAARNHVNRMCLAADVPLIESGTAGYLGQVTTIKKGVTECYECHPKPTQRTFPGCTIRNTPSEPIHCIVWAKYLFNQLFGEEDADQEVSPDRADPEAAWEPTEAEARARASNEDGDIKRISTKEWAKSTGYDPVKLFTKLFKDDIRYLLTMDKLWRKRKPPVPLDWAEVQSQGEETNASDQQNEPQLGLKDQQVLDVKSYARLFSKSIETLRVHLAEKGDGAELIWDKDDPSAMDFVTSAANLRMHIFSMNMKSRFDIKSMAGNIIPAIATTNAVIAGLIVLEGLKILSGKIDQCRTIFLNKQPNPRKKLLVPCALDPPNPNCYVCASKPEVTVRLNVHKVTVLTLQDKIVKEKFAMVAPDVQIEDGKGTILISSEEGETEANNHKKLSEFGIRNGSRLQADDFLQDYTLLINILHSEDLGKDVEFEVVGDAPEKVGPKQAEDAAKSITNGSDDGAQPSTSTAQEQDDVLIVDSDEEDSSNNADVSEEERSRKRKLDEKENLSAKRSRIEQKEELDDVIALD
Sequence of DNA damage-inducible transcript 3 protein (P35639 whole entry): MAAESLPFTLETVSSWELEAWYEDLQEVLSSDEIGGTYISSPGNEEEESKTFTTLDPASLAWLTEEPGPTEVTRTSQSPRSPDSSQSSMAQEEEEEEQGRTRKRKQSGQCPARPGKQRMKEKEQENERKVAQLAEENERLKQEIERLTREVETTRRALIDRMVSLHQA
Sequence of Intestinal-type alkaline phosphatase (P09923 whole entry): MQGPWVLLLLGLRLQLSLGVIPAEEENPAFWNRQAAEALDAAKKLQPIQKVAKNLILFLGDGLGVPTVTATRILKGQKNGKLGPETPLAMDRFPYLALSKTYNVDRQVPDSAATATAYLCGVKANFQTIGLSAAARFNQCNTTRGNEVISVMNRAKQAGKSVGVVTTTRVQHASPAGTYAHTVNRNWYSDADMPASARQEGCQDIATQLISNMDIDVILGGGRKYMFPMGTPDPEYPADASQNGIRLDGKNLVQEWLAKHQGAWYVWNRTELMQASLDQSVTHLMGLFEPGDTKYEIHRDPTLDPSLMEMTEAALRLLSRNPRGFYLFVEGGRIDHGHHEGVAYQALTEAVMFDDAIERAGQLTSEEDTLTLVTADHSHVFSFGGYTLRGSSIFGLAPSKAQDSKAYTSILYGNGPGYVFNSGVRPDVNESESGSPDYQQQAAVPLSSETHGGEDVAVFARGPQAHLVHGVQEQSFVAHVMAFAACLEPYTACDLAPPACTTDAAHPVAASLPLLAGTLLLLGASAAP
Sequence of Procathepsin L (P07711 whole entry): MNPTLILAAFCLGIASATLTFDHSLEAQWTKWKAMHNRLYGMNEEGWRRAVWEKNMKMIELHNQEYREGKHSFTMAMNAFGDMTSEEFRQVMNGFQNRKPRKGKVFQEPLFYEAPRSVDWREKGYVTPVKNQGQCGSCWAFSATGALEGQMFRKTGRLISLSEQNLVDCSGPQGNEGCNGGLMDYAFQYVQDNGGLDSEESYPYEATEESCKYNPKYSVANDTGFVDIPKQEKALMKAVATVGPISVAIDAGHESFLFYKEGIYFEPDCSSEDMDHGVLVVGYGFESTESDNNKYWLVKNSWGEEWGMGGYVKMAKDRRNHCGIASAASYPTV

## Cc1ccc(OCCOc2ccc(Br)cc2)c([N+](=O)[O-])n1
[1]
  EC50: > 50 µM (inactive)
[2]
  EC50: 20.7 µM (inactive) and 23.3 µM (inactive)

## S=C(NN=C(c1ccccc1)c1ccccn1)N(Cc1ccccn1)Cc1ccccn1
[3]
  EC50: 1.78 µM (active)
[4]
  IC50: 2.59 µM (active)
[5]
  EC50: > 80 µM (inactive)

## CC1CCCc2ccccc21.CN[C@@H](C)C(=O)N[C@@H](C(=O)N1CCC[C@H]1C(N)=O)C1CCCCC1 (H-[NMeA]-[dChg]-Pro-NH2)
[6]
  IC50: > 100 µM (inactive)
[7]
  IC50: > 100 µM (inactive)

## N=c1c(S(=O)(=O)c2ccccc2)cc2c(=O)n3ccccc3nc2n1Cc1ccco1
[8]
  IC50: 3.38 µM (active)
[9]
  IC50: 6.01 µM (active)
[10]
  IC50: 57.5 µM (inactive)

## Cc1ccc(C(=O)n2nc(-c3cccnc3)nc2N)cc1
[11]
  IC50: 0.543 µM (active)
[12]
  IC50: 0.796 µM (active)
[13]
  IC50: > 100 µM (inactive)

## Cc1cc(NC(=O)NC2(C(F)(F)F)Oc3ccc(Cl)cc3O2)no1 (centres undefined)
[14]
  IC50: 1.69 µM (active)
[15]
  IC50: > 59.6 µM (not active)
[16]
  IC50: > 100 µM (inactive)
[17]
  IC50: > 100 µM (not active)
[18]
  Absolute IC50 (CHOP): 10 µM
[19]
  Absolute IC50 (XBP1): < 10 µM
[20]
  AC50: 38 µM (active)

## O=C(COc1ccc(Br)cc1)NCCCn1ccnc1
[21]
  EC50: > 100 µM (inactive)

## CC[C@](C)(C(=O)Nc1ccc(Br)cc1)N(Cc1ccco1)C(=O)c1ccccn1
[22]
  IC50: > 32 µM (inactive)
[23]
  EC50: 0.0802 µM (active)
[24]
  IC50: > 32 µM (inactive)
